Measurements published in PMC7282811.
Read-outs that look alike come from different tables or passages of the source.

Columns and labels:
[1] = target: T1, H3R (Mus musculus, UniProt P58406); assay: tissue or organelle; design: species or system brain tissue of 8-month-old Hdh^Q7/Q7 or Hdh^Q7/Q111 mice; radioligand binding to mouse brain region membranes, KD from saturation and competition curves
T1 construct: gene Hrh3; native receptor, endogenous in mouse brain tissue membranes
Description: (§1) Supplementary file elife-51093-supp2.docx: Supplementary file 2. H3R and D1R binding parameters in different brain regions from 8-month-old Hdh^Q7/Q7 and Hdh^Q7/Q111 mice. Mouse striatal, cortical or hippocampal tissue were homogenized in 50 mM Tris-HCl buffer and ligand binding was performed with membrane suspension (see online methods). Binding parameters from saturation and competition curves were obtained using Grafit software by fitting the binding data to the equation previously deduced (equation (3) in [Gracia et al., 2013]. Data are mean ± SEM of experiments performed per triplicate (n = 6 Hdh^Q7/Q7 and n = 5 Hdh^Q7/Q111). To test whether D1R-H3R heteromers can indeed be targets for treating HD, we investigated their expression and function in the striatum, cerebral cortex and hippocampus of a widely accepted preclinical model of HD, the heterozygous Hdh^Q7/Q111 mutant knock-in mice, and their wild-type Hdh^Q7/Q7 littermates ([Giralt et al., 2012]; [Puigdellívol et al., 2015]). By PLA we confirmed that both Hdh^Q7/Q7 and Hdh^Q7/Q111 mice display D1R-H3R heteromers at 2 months (mo) (Figure 2—figure supplement 1) and four mo (Figure 2A,B) of age in all brain regions tested. […] Heteromer expression was similar in all brain areas and no differences were observed between genotypes at 4 mo of age (Figure 2B). […] Although at 8 mo of age we detected a partial decrease in striatal D1R expression in Hdh^Q7/Q111 compared with Hdh^Q7/Q7 mice using ligand binding experiments (Supplementary file 2), the loss of heteromer expression is not due to a complete loss of receptor expression since by radioligand binding (Supplementary file 2) and mRNA expression analysis (Supplementary file 3) both receptors continue to be expressed.

[2] = target: T2, dopamine D1 receptor (D1R) (Mus musculus, UniProt Q61616); assay: radioligand saturation binding, cell membranes, filtration; conditions: labelled compound; STHdh^Q7 cell membranes; 50 mM Tris-HCl pH 7.4, 10 mM MgCl2, 25 °C; nonspecific with 30 µM unlabelled ligand; read-out: binding parameters
T2 construct: gene Drd1; native full-length receptor, endogenous in membranes of STHdh^Q7 mouse striatal cells; part may be in D1R-H3R heteromers
T2 sequence (Q61616 whole entry): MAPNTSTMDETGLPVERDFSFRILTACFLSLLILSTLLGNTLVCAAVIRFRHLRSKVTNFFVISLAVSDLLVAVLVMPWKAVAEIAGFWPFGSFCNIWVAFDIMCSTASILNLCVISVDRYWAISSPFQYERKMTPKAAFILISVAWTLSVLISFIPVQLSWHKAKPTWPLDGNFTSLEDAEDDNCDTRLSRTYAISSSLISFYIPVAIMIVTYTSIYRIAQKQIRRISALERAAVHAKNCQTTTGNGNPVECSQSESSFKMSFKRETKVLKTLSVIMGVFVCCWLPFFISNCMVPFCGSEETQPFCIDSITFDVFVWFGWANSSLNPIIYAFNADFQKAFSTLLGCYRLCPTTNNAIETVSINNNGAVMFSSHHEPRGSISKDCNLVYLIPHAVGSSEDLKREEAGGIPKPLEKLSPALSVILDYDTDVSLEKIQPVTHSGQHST
Description: radioligand saturation binding, cell membranes, filtration on dopamine D1 receptor (D1R) | membranes were incubated with increasing free concentrations of [^3H]

[3] = target: T2, dopamine D1 receptor (D1R); design: species or system STHdh^Q7 or STHdh^Q111 mouse striatal cells; radioligand binding to striatal cell membranes, KD from saturation and competition curves; conditions: STHdh^Q111 cell membranes; binder
Description: Supplementary file elife-51093-supp1.docx: Supplementary file 1. H3R and D1R binding parameters in STHdh^Q7, STHdh^Q111 cells. Striatal cells were homogenized in 50 mM Tris-HCl buffer and ligand binding was performed with membrane suspension (see materials and methods). Binding parameters from saturation and competition curves were obtained using Grafit software by fitting the binding data to the equation previously deduced (equation (3) in [Gracia et al., 2013]. Data are mean ± SEM of experiments performed per triplicate.

[4] = target: T3, D1R (Mus musculus, UniProt Q61616); assay: tissue or organelle; design: species or system brain tissue of 8-month-old Hdh^Q7/Q7 or Hdh^Q7/Q111 mice; radioligand binding to mouse brain region membranes, KD from saturation and competition curves
T3 construct: gene Drd1; native receptor, endogenous in mouse brain tissue membranes
T3 sequence (Q61616 whole entry): as above
Description: as §1

[5] = Cortex, 8-month-old Hdh^Q7/Q7 mice
[6] = Hippocampus, 8-month-old Hdh^Q7/Q7 mice
[7] = Hippocampus, 8-month-old Hdh^Q7/Q111 mice
[8] = Striatum, 8-month-old Hdh^Q7/Q7 mice
[9] = Striatum, 8-month-old Hdh^Q7/Q111 mice

T1 sequence (P58406 whole entry): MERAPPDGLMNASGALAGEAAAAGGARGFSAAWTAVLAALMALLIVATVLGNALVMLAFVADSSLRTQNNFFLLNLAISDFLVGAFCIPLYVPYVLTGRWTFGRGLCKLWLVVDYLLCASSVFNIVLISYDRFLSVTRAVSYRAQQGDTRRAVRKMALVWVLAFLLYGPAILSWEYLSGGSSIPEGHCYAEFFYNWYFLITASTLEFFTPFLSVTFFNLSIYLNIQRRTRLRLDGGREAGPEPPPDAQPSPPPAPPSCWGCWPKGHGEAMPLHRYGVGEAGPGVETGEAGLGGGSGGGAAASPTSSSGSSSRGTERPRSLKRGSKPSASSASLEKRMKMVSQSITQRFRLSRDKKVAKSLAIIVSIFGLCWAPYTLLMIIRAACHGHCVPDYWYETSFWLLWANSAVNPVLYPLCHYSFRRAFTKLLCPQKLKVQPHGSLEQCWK

Kd [2] | Kd [3] | Kd [4, 5] | Kd [4, 6] | Kd [4, 7] | Kd [4, 8] | Kd [4, 9] | Structure (SMILES) | Kd [1, 5] | Kd ([1]; Cortex, 8-month-old Hdh^Q7/Q111 mice) | Kd [1, 6] | Kd [1, 7] | Kd [1, 8] | Kd [1, 9]
– | – | – | – | – | – | – | C[C@@H](N)Cc1c[nH]cn1 [[^3H] R-α-methyl histamine] | 0.22 ± 0.02 nM | 0.24 ± 0.04 nM | 0.2 ± 0.01 nM | 0.37 ± 0.1 nM | 0.27 ± 0.03 nM | 0.26 ± 0.03 nM
0.3 ± 0.1 nM | 0.16 ± 0.08 nM | 0.05 ± 0.01 nM | 0.03 ± 0.02 nM | 0.09 ± 0.07 nM | 0.17 ± 0.02 nM | 0.11 ± 0.01 nM | CN1CCc2cc(Cl)c(O)cc2[C@@H](c2ccccc2)C1 [[^3H] SCH 23390] | – | – | – | – | – | –
